Experimental data reported in US20030022811A1, “Favorable modulation of health-related quality of life and health-related quality-adjusted time-to-progression of disease in patients with prostate cancer” (priority 2001, published 2003).
Entries after “also recorded” stand apart in the source; their conditions may differ.

Key:
Type in all cases: in vivo, human
[1] = tested on: patients having hormone refractory prostate cancer (HRPCa); assay: Health-related quality-adjusted time-to-progression (QATTP), Kaplan-Meier product limit analysis; conditions: for health-related QATTP, difference between the atrasentan treatment groups: 10 mg vs 2.5 mg
Description: The health-related QATTP model used for the practice of this invention expresses progression-free time as an equally preferable amount of time spent in full health. This is achieved by using patient-reported health-related QoL, as measured for the duration of observation or progression-free interval, to weight progression-free time. […] Patients received treatment with either 10 mg (N=89) or 2.5 mg (N=95) of atrasentan or placebo (N=104) until experiencing a clinical event indicative of disease progression as defined by palliative opiate treatment of new bone or visceral pain, palliative radiation treatment of new bone pain, or new tumor growth symptoms requiring intervention or treatment with chemotherapy. Patient-reported health-related QoL data were collected with the EORTC QLQ-30 and the FACT-G and FACT-P, both of which were administered at baseline, at six week intervals and at the patient's final visit. A patient's transformed domain score and total score from both the EORTC QLQ-30 and FACT were used to weight the time-to-progression outcome data. Transformed domain scores ranged between 0 and 1, so the reported health-related QATTP outcome was never larger than actual time to progression. Possible scores for the fourteen EORTC domains each range between […]. For six domains (physical, emotional, role, social, and cognitive functioning and global score), a higher score means a better health-related QoL. These six scores were transformed to weights by dividing the patient-reported scores by 100. For the remaining eight EORTC domains, a higher score indicates worse symptoms (a worse health-related QoL). These domains are pain, fatigue, nausea and vomiting, appetite loss, […], sleep disturbance, diarrhea, and constipation. These eight scores were converted to weight adjustments by dividing them by 100 and subtracting the result from the integer 1 to provide consistent directionality of response. […] Each patient's health-related QATTP was computed as the […] of the health-related QoL weights and the duration for which that patient experienced that health-related QoL. If a patient experienced a clinical event between two health-related QoL assessments, the set of health-related QoL domain scores immediately prior to the event were carried forward to the time of the clinical event. The mean and median health-related QATTP outcomes were then estimated using Kaplan-Meier product limit methodology (Journal of the American Statistical Association, vol.53, 1958, pp 457-481). The area under a Kaplan-Meier survival curve conveys an estimated mean health-related QATTP. This analysis was applied to both intent-to-treat (ITT) and per protocol population data. All health-related QATTP comparisons between atrasentan and placebo treatment groups were based on log-rang test statistical significance at an α of 0.05. Results of the Kaplan-Meier product limit survival method analysis are reported in Table 2 (Intent to Treat) and Table 3 (Per Protocol Population). Mean and median health-related QATTP are shown by treatment arm. Log-rank tests comparing the differences between treatment groups are also reported.

[2] = tested on: patients having hormone refractory prostate cancer (HRPCa); assay: Area under the Curve (AUC) analysis of health-related QoL domain scores, one year follow-up
Source text: The Kaplan-Meier product limit method can provide biased results if study data are obtained under certain conditions such as staggered entry of subjects into the study and/or incomplete follow-up (Biometrics. 1989; 5:781-795). Thus, a second study was implemented to verify that the conclusions derived from the Kaplan-Meier would remain robust to the length of follow-up. The assumption was that all patients were followed for one year. Patients who discontinued from the study prior to one year of observation had their last observation for all health-related QoL domains carried forward through the remainder of the year. Similarly, patients who had not completed one year of observation had their health-related QoL data carried forward through one year. If the patient experienced a clinical event within the one year period, the last observation was not carried forward. The Area under the Curve (AUC) value for each domain was computed by multiplying the health-related QoL domain score by the respective duration of that score. Finally, AUC values were aggregated across all subjects within each respective treatment group (atrasentan (10 mg), atrasentan (2.5 mg), and placebo). Aggregated AUC values for each domain were compared for differences between treatment groups using a t-test.

[3] = tested on: patients having hormone refractory prostate cancer (HRPCa); assay: Time to disease progression, PSA progression and markers of bone metabolism
Description: Patients received treatment with either 10 mg (N=89) or 2.5 mg (N=95) of atrasentan or placebo (N=104) until experiencing a clinical event indicative of disease progression as defined by palliative opiate treatment of new bone or visceral pain, palliative radiation treatment of new bone pain, or new tumor growth symptoms requiring intervention or treatment with chemotherapy.

[4] = At. 10 mg, adjusted by FACT Functional Well Being, Intent to Treat
[5] = At. 10 mg, adjusted by FACT Physical Well Being, Per Protocol
[6] = 10 mg and 2.5 mg, Per Protocol subjects

## CCCCN(CCCC)C(=O)CN1C[C@H](c2ccc3c(c2)OCO3)[C@@H](C(=O)O)[C@@H]1c1ccc(OC)cc1 [atrasentan, (2R,3R,4S)-2-(4-methoxyphenyl)-4-(1,3-benzodioxol-5-yl)-1-(N,N-di(n-butyl)aminocarbonylmethyl)pyrrolidine-3-carboxylic]
[1]; 2.5 mg, per protocol
  mean health-related QATTP vs placebo: longer
[1]; 2.5 mg, per protocol, all QoL domains except dyspnea and functional well-being
  log rank test of health-related QATTP vs placebo: statistically significant
[1]; 10 mg and 2.5 mg, intent-to-treat population
  mean and median health-related QATTP, atrasentan treatment groups vs placebo: no statistically significant differences
[1]; intent-to-treat population
  health-related QATTP, difference between the atrasentan treatment groups: no statistically significant differences
[1]; per protocol, any QoL domain
  health-related QATTP, difference between the atrasentan treatment groups: no statistical differences
[1]; 10 mg, per protocol, dyspnea, global score, emotional well-being, social well-being, p<0.10
  health-related QATTP trend vs placebo: trend favored
[1]; 10 mg, per protocol, p<0.05, all QoL domains except dyspnea, global score, emotional, social and functional well-being
  weighted health-related QATTP vs placebo group: significantly longer
[1]; At. 2.5 mg, adjusted by EORTC Cognitive Functioning, Intent to Treat
  Health-Related QATTP Mean: 180 days
[1]; At. 2.5 mg, adjusted by EORTC Cognitive Functioning, Per Protocol
  Health-Related QATTP Mean: 190 days
[1]; At. 2.5 mg, adjusted by EORTC Constipation, Intent to Treat
  Health-Related QATTP Mean: 180 days
[1]; At. 2.5 mg, adjusted by EORTC Constipation, Per Protocol
  Health-Related QATTP Mean: 190 days
[1]; At. 2.5 mg, adjusted by EORTC Dyspnea, Per Protocol
  Health-Related QATTP Mean: 180 days
[1]; At. 2.5 mg, adjusted by FACT Emotional Well Being, Intent to Treat
  Health-Related QATTP Mean: 180 days
[1]; At. 2.5 mg, adjusted by FACT Social/Family Well Being, Intent to Treat
  Health-Related QATTP Mean: 160 days
[1]; At. 2.5 mg, adjusted by FACT-G, Per Protocol
  Health-Related QATTP Mean: 180 days
[1]; At. 2.5 mg, adjusted by FACT-P, Per Protocol
  Health-Related QATTP Mean: 160 days
[1]; At. 10 mg, adjusted by EORTC Role Functioning, Intent to Treat
  Health-Related QATTP Mean: 180 days
[1]; At. 10 mg, adjusted by EORTC Social Functioning, Intent to Treat
  Health-Related QATTP Mean: 190 days
[1]; [4]
  Health-Related QATTP Mean: 140 days
  Health-Related QATTP Median: 98 days
[1]; [5]
  Health-Related QATTP Mean: 190 days
  Health-Related QATTP Median: 130 days
[1]; At. 10 mg, adjusted by FACT-G, Intent to Treat
  Health-Related QATTP Mean: 160 days
[1]; At. 10 mg, adjusted by FACT-G, Per Protocol
  Health-Related QATTP Median: 130 days
[1]; both 10 mg and 2.5 mg arms, per protocol analysis
  health-related QATTP compared to placebo: improved; also recorded: longer
[2]; 2.5 mg, all domains except dyspnea, social/family, functional well-being and FACT-P
  AUC results vs placebo group: significantly improved
[2]; Intent to Treat population
  AUC of health-related QoL domain scores, atrasentan treatment vs placebo: no statistical differences
[2]; per-protocol population
  AUC of health-related QoL domain scores, 10 mg vs 2.5 mg groups: not statistically differentiable
[2]; per-protocol population, every QoL domain score
  AUC of health-related QoL domain scores, atrasentan treatment groups vs placebo: strong trends in favor
[2]; physical functioning, social functioning and pain domains
  AUC for health-related QoL domain scores vs placebo: significantly (p<0.05) longer
[3]; 10 mg and 2.5 mg, Per Protocol analysis
  time to disease progression compared to placebo: delayed
[3]; [6]
  markers of bone metabolism: attenuated increases
  time to prostate-specific antigen (PSA) progression: delayed
[3]; intent-to-treat population
  time to disease or PSA progression across treatment groups: no statistically significant differences
